Source: ChEMBL document CHEMBL1201862, “PubChem BioAssay data set” (2004)
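Following 48 hours of exposure in 96-well plates, responses at five concentrations were used to interpolate endpoints linearly. The concentration for 50% growth inhibition is given as GI50.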 Active and inactive are the calls of the source. Cut-off read from the data, not from the text of the source: active = GI50 up to about 1.1 µM and inactive = higher.

How the values were obtained:
Experiment in all cases: NCI anticancer screen, dose series, 48 h
XF498 = test system: XF498
KM-20L2 = test system: KM-20L2
HOP-18 = test system: HOP-18
RXF 631 = test system: RXF 631
SNB-78 = test system: SNB-78
DLD-1 = test system: DLD-1
M19-MEL = test system: M19-MEL
DMS-273 = test system: DMS-273
DMS-114 = test system: DMS-114

Measured: GI50

O=S(=O)(C/C(=N\O)c1ccccc1)c1ccccc1
inactive: XF498 59.3 µM | KM-20L2 > 100 µM | HOP-18 > 100 µM | RXF 631 > 100 µM | SNB-78 > 100 µM | DLD-1 > 100 µM | M19-MEL > 100 µM | DMS-273 > 100 µM

Cn1cc(C(=O)c2ccccc2)cc(C(=O)c2ccccc2)c1=O
inactive: XF498 > 100 µM | KM-20L2 > 100 µM | RXF 631 > 100 µM | SNB-78 > 100 µM | DLD-1 > 100 µM | M19-MEL > 100 µM | DMS-273 > 100 µM | DMS-114 > 100 µM

O=C1C2=C(c3ccccc31)C(c1ccc(Cl)cc1)NC(S)=N2 (configuration not stated)
inactive: KM-20L2 20.4 µM | DLD-1 22.8 µM | M19-MEL 20 µM | DMS-273 20.3 µM | DMS-114 22.7 µM

CCC1CN2CCc3cc(OC)c(OC)cc3C2CC1CC1c2cc(OC)c(OC)cc2CCN1C(=O)CNC(=O)OC(C)(C)C (configuration not stated)
inactive: XF498 7.53 µM | KM-20L2 5.08 µM | HOP-18 23.3 µM | RXF 631 30.3 µM | SNB-78 20.5 µM | DLD-1 4.67 µM | M19-MEL 16.3 µM | DMS-273 12 µM | DMS-114 3.8 µM

COc1ccc(NC(=O)/C(=N/O)C(C)=O)cc1
inactive: KM-20L2 87.9 µM | HOP-18 > 100 µM | SNB-78 > 100 µM | DLD-1 42.5 µM | DMS-273 > 100 µM | DMS-114 36.7 µM

Cc1nc(Nc2ccc(Cl)cc2)sc1C(=O)Nc1cccc2c(=O)[nH][nH]c(=O)c12
inactive: KM-20L2 11.8 µM | SNB-78 > 100 µM | DLD-1 17.5 µM | M19-MEL 30.3 µM | DMS-273 7.24 µM | DMS-114 19.2 µM

COc1cccc(C2CC23C(=O)NC(=O)NC3=O)c1 (configuration not stated)
inactive: XF498 > 100 µM | KM-20L2 > 100 µM | SNB-78 > 100 µM | M19-MEL > 100 µM | DMS-273 > 100 µM | DMS-114 > 100 µM

Cc1cccc2c1Sc1ccccc1C2NC(=O)CCN(C)C (configuration not stated)
inactive: KM-20L2 > 100 µM | SNB-78 > 100 µM | DLD-1 > 100 µM | M19-MEL > 100 µM | DMS-273 > 100 µM | DMS-114 > 100 µM

CCOC(=O)/C(=C/c1cccc(Cl)c1)N(CC)CC
inactive: XF498 46.3 µM | HOP-18 24.2 µM | DLD-1 48.9 µM | M19-MEL 88.7 µM | DMS-114 31 µM

COc1ccc(/C=C2\C(=O)N(C(=O)Cc3ccccc3)N=C2C)cc1OC
inactive: XF498 > 100 µM | HOP-18 > 100 µM | SNB-78 > 100 µM | M19-MEL > 100 µM | DMS-273 > 100 µM | DMS-114 > 100 µM

CC(C)c1ccccc1NC(=O)C(=O)Cc1nc2ccccc2s1
inactive: KM-20L2 > 100 µM | HOP-18 > 100 µM | RXF 631 > 100 µM | SNB-78 > 100 µM | M19-MEL > 100 µM | DMS-273 > 100 µM | DMS-114 > 100 µM

c1ccc2c(c1)cc1n2CC2CN=NC12 (configuration not stated)
inactive: KM-20L2 > 100 µM | RXF 631 > 100 µM | SNB-78 > 100 µM | DLD-1 > 100 µM | M19-MEL > 100 µM | DMS-273 > 100 µM

N#C/N=C(/N)NCN/C(N)=N\C#N
inactive: KM-20L2 > 100 µM | HOP-18 > 100 µM | RXF 631 > 100 µM | SNB-78 > 100 µM | DLD-1 81.5 µM | M19-MEL > 100 µM | DMS-273 58.9 µM | DMS-114 > 100 µM

COC(=O)C(=Cc1cc(OC)c(OC)c(OC)c1-c1cc2c(cc1C1(C)OCCS1)OCO2)C(=O)OC (configuration not stated)
inactive: KM-20L2 22.3 µM | RXF 631 31.4 µM | DLD-1 27.6 µM | M19-MEL 23 µM | DMS-273 23.2 µM | DMS-114 19.8 µM
